Measurements as given in the supplement of paper PMC10307832.

How the values were obtained:
Experiment in all cases: relative viability (nuclei count vs DMSO), 5 days (fraction); higher = more cells survive
Neratinib + AZD7762 = compound: CCOc1cc2ncc(C#N)c(Nc3ccc(OCc4ccccn4)c(Cl)c3)c2cc1NC(=O)/C=C/CN(C)C [Neratinib] + NC(=O)Nc1cc(-c2cccc(F)c2)sc1C(=O)N[C@H]1CCCNC1 [AZD7762] (partner 0.2 µM)
Procedure, shortened: (§1)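 Relative viability was taken as the ratio of nuclei in treated wells to nuclei in vehicle wells. Lung cancer cell lines in 1536-well plates received compounds by pin tool one day after seeding, either one drug alone or a fixed anchor-drug dose plus five library-drug doses (not always all listed) in √10 steps. Nuclei were counted on 4× images after 5 days of treatment, and values are medians of duplicate plates.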

Neratinib + Bortezomib = compound: CCOc1cc2ncc(C#N)c(Nc3ccc(OCc4ccccn4)c(Cl)c3)c2cc1NC(=O)/C=C/CN(C)C [Neratinib] + CC(C)C[C@H](NC(=O)[C@H](Cc1ccccc1)NC(=O)c1cnccn1)B(O)O [Bortezomib] (partner 0.002 µM)
Procedure, shortened: as §1

Neratinib + Pictilisib = compound: CCOc1cc2ncc(C#N)c(Nc3ccc(OCc4ccccn4)c(Cl)c3)c2cc1NC(=O)/C=C/CN(C)C [Neratinib] + CS(=O)(=O)N1CCN(Cc2cc3nc(-c4cccc5[nH]ncc45)nc(N4CCOCC4)c3s2)CC1 [Pictilisib] (partner 1 µM)
Procedure, shortened: as §1

Neratinib + Linsitinib = compound: CCOc1cc2ncc(C#N)c(Nc3ccc(OCc4ccccn4)c(Cl)c3)c2cc1NC(=O)/C=C/CN(C)C [Neratinib] + C[C@]1(O)C[C@@H](c2nc(-c3ccc4ccc(-c5ccccc5)nc4c3)c3c(N)nccn32)C1 [Linsitinib] (partner 1 µM)
Procedure, shortened: as §1

Neratinib + Olaparib = compound: CCOc1cc2ncc(C#N)c(Nc3ccc(OCc4ccccn4)c(Cl)c3)c2cc1NC(=O)/C=C/CN(C)C [Neratinib] + O=C(c1cc(Cc2n[nH]c(=O)c3ccccc23)ccc1F)N1CCN(C(=O)C2CC2)CC1 [Olaparib] (partner 8 µM)
Procedure, shortened: as §1

Neratinib + Crizotinib = compound: CCOc1cc2ncc(C#N)c(Nc3ccc(OCc4ccccn4)c(Cl)c3)c2cc1NC(=O)/C=C/CN(C)C [Neratinib] + C[C@@H](Oc1cc(-c2cnn(C3CCNCC3)c2)cnc1N)c1c(Cl)ccc(F)c1Cl [Crizotinib] (partner 1 µM)
Procedure, shortened: as §1

Neratinib + Navitoclax = compound: CCOc1cc2ncc(C#N)c(Nc3ccc(OCc4ccccn4)c(Cl)c3)c2cc1NC(=O)/C=C/CN(C)C [Neratinib] + CC1(C)CCC(c2ccc(Cl)cc2)=C(CN2CCN(c3ccc(C(=O)NS(=O)(=O)c4ccc(N[C@H](CCN5CCOCC5)CSc5ccccc5)c(S(=O)(=O)C(F)(F)F)c4)cc3)CC2)C1 [Navitoclax] (partner 0.5 µM)
Procedure, shortened: as §1

Neratinib + Foretinib = compound: CCOc1cc2ncc(C#N)c(Nc3ccc(OCc4ccccn4)c(Cl)c3)c2cc1NC(=O)/C=C/CN(C)C [Neratinib] + COc1cc2c(Oc3ccc(NC(=O)C4(C(=O)Nc5ccc(F)cc5)CC4)cc3F)ccnc2cc1OCCCN1CCOCC1 [Foretinib] (partner 0.25 µM)
Procedure, shortened: as §1

Neratinib + Alpelisib = compound: CCOc1cc2ncc(C#N)c(Nc3ccc(OCc4ccccn4)c(Cl)c3)c2cc1NC(=O)/C=C/CN(C)C [Neratinib] + Cc1nc(NC(=O)N2CCC[C@H]2C(N)=O)sc1-c1ccnc(C(C)(C)C(F)(F)F)c1 [Alpelisib] (partner 2 µM)
Procedure, shortened: as §1

Neratinib + Lapatinib = compound: CCOc1cc2ncc(C#N)c(Nc3ccc(OCc4ccccn4)c(Cl)c3)c2cc1NC(=O)/C=C/CN(C)C [Neratinib] + CS(=O)(=O)CCNCc1ccc(-c2ccc3ncnc(Nc4ccc(OCc5cccc(F)c5)c(Cl)c4)c3c2)o1 [Lapatinib] (partner 2 µM)
Procedure, shortened: as §1

Neratinib = compound: CCOc1cc2ncc(C#N)c(Nc3ccc(OCc4ccccn4)c(Cl)c3)c2cc1NC(=O)/C=C/CN(C)C [Neratinib]
Procedure, shortened: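 Five library-drug doses spaced by √10 were pinned onto vehicle-anchored 1536-well plates of lung cancer cell lines that had been kept overnight at 37 °C. Cells went 5 days without medium change, then were fixed, permeabilised and Hoechst-stained together, imaged at 4× and counted by MetaXpress. Viability is the ratio of treated-well to vehicle-well nuclei, taken as a median over plates. Plates required control CV below 25% and at least one doubling.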

Neratinib + Tozasertib = compound: CCOc1cc2ncc(C#N)c(Nc3ccc(OCc4ccccn4)c(Cl)c3)c2cc1NC(=O)/C=C/CN(C)C [Neratinib] + Cc1cc(Nc2cc(N3CCN(C)CC3)nc(Sc3ccc(NC(=O)C4CC4)cc3)n2)n[nH]1 [Tozasertib] (partner 0.1 µM)
Procedure, shortened: as §1

Neratinib + Dasatinib = compound: CCOc1cc2ncc(C#N)c(Nc3ccc(OCc4ccccn4)c(Cl)c3)c2cc1NC(=O)/C=C/CN(C)C [Neratinib] + Cc1nc(Nc2ncc(C(=O)Nc3c(C)cccc3Cl)s2)cc(N2CCN(CCO)CC2)n1 [Dasatinib] (partner 0.075 µM)
Procedure, shortened: as §1

Neratinib + Luminespib = compound: CCOc1cc2ncc(C#N)c(Nc3ccc(OCc4ccccn4)c(Cl)c3)c2cc1NC(=O)/C=C/CN(C)C [Neratinib] + CCNC(=O)c1noc(-c2cc(C(C)C)c(O)cc2O)c1-c1ccc(CN2CCOCC2)cc1 [Luminespib] (partner 0.01 µM)
Procedure, shortened: as §1

Neratinib + Phenformin = compound: CCOc1cc2ncc(C#N)c(Nc3ccc(OCc4ccccn4)c(Cl)c3)c2cc1NC(=O)/C=C/CN(C)C [Neratinib] + N=C(N)NC(=N)NCCc1ccccc1 [Phenformin] (partner 250 µM)
Procedure, shortened: as §1

Neratinib + OSI-027 = compound: CCOc1cc2ncc(C#N)c(Nc3ccc(OCc4ccccn4)c(Cl)c3)c2cc1NC(=O)/C=C/CN(C)C [Neratinib] + COc1cccc2cc(-c3nc([C@H]4CC[C@H](C(=O)O)CC4)n4ncnc(N)c34)[nH]c12 [OSI-027] (partner 0.5 µM)
Procedure, shortened: as §1

Q: NCI-H1703 was tested. Which relative viability (Neratinib + AZD7762; first compound 0.01 µM) did it give?
A: 0.148

Q: What about the relative viability (Neratinib + AZD7762; first compound 0.03162 µM) of the same cell line?
A: 0.135

Q: What about the relative viability (Neratinib + AZD7762; first compound 0.1 µM) of the same cell line?
A: 0.164

Q: What about the relative viability (Neratinib + AZD7762; first compound 0.3162 µM) of the same cell line?
A: 0.111

Q: And the relative viability (Neratinib + AZD7762; first compound 1 µM)?
A: 0.118

Q: What about the relative viability (Neratinib + Bortezomib; first compound 0.01 µM) of the same cell line?
A: 0.335

Q: What about the relative viability (Neratinib + Bortezomib; first compound 0.03162 µM) of the same cell line?
A: 0.345

Q: And the relative viability (Neratinib + Bortezomib; first compound 0.1 µM)?
A: 0.394

Q: And the relative viability (Neratinib + Bortezomib; first compound 0.3162 µM)?
A: 0.233

Q: What about the relative viability (Neratinib + Bortezomib; first compound 1 µM) of the same cell line?
A: 0.18

Q: And the relative viability (Neratinib + Pictilisib; first compound 0.01 µM)?
A: 0.23

Q: And the relative viability (Neratinib + Pictilisib; first compound 0.03162 µM)?
A: 0.224

Q: And the relative viability (Neratinib + Pictilisib; first compound 0.1 µM)?
A: 0.244

Q: What about the relative viability (Neratinib + Pictilisib; first compound 0.3162 µM) of the same cell line?
A: 0.201

Q: What about the relative viability (Neratinib + Pictilisib; first compound 1 µM) of the same cell line?
A: 0.212

Q: And the relative viability (Neratinib + Linsitinib; first compound 0.01 µM)?
A: 0.636

Q: What about the relative viability (Neratinib + Linsitinib; first compound 0.03162 µM) of the same cell line?
A: 0.641

Q: What about the relative viability (Neratinib + Linsitinib; first compound 0.1 µM) of the same cell line?
A: 0.659

Q: What about the relative viability (Neratinib + Linsitinib; first compound 0.3162 µM) of the same cell line?
A: 0.516

Q: And the relative viability (Neratinib + Linsitinib; first compound 1 µM)?
A: 0.509

Q: And the relative viability (Neratinib + Olaparib; first compound 0.01 µM)?
A: 0.536

Q: And the relative viability (Neratinib + Olaparib; first compound 0.03162 µM)?
A: 0.486

Q: And the relative viability (Neratinib + Olaparib; first compound 0.1 µM)?
A: 0.402

Q: What about the relative viability (Neratinib + Olaparib; first compound 0.3162 µM) of the same cell line?
A: 0.218

Q: And the relative viability (Neratinib + Olaparib; first compound 1 µM)?
A: 0.162

Q: And the relative viability (Neratinib + Crizotinib; first compound 0.03162 µM)?
A: 0.582

Q: What about the relative viability (Neratinib + Crizotinib; first compound 0.1 µM) of the same cell line?
A: 0.637

Q: What about the relative viability (Neratinib + Crizotinib; first compound 0.3162 µM) of the same cell line?
A: 0.5

Q: And the relative viability (Neratinib + Crizotinib; first compound 1 µM)?
A: 0.14

Q: What about the relative viability (Neratinib + Navitoclax; first compound 0.01 µM) of the same cell line?
A: 1.46

Q: And the relative viability (Neratinib + Navitoclax; first compound 0.03162 µM)?
A: 0.921

Q: What about the relative viability (Neratinib + Navitoclax; first compound 0.1 µM) of the same cell line?
A: 0.929

Q: And the relative viability (Neratinib + Navitoclax; first compound 0.3162 µM)?
A: 0.884

Q: And the relative viability (Neratinib + Navitoclax; first compound 1 µM)?
A: 0.286

Q: What about the relative viability (Neratinib + Foretinib; first compound 0.01 µM) of the same cell line?
A: 0.447

Q: What about the relative viability (Neratinib + Foretinib; first compound 0.03162 µM) of the same cell line?
A: 0.318

Q: And the relative viability (Neratinib + Foretinib; first compound 0.1 µM)?
A: 0.356

Q: And the relative viability (Neratinib + Foretinib; first compound 0.3162 µM)?
A: 0.327

Q: What about the relative viability (Neratinib + Foretinib; first compound 1 µM) of the same cell line?
A: 0.218

Q: And the relative viability (Neratinib + Alpelisib; first compound 0.01 µM)?
A: 0.36

Q: And the relative viability (Neratinib + Alpelisib; first compound 0.03162 µM)?
A: 0.354

Q: And the relative viability (Neratinib + Alpelisib; first compound 0.1 µM)?
A: 0.279

Q: And the relative viability (Neratinib + Alpelisib; first compound 0.3162 µM)?
A: 0.205

Q: What about the relative viability (Neratinib + Alpelisib; first compound 1 µM) of the same cell line?
A: 0.165

Q: What about the relative viability (Neratinib + Lapatinib; first compound 0.01 µM) of the same cell line?
A: 1.05

Q: What about the relative viability (Neratinib + Lapatinib; first compound 0.03162 µM) of the same cell line?
A: 1.29

Q: What about the relative viability (Neratinib + Lapatinib; first compound 0.1 µM) of the same cell line?
A: 0.924

Q: What about the relative viability (Neratinib + Lapatinib; first compound 0.3162 µM) of the same cell line?
A: 0.79

Q: What about the relative viability (Neratinib + Lapatinib; first compound 1 µM) of the same cell line?
A: 0.244

Q: And the relative viability (Neratinib; 0.01 µM)?
A: 1.16

Q: And the relative viability (Neratinib; 0.03162 µM)?
A: 0.951

Q: What about the relative viability (Neratinib; 0.1 µM) of the same cell line?
A: 0.909

Q: What about the relative viability (Neratinib; 0.3162 µM) of the same cell line?
A: 0.778

Q: And the relative viability (Neratinib; 1 µM)?
A: 0.388

Q: How did the relative viability (Neratinib + Tozasertib; first compound 0.01 µM) turn out when NCI-H1623 was run?
A: 0.477

Q: And the relative viability (Neratinib + Tozasertib; first compound 0.03162 µM)?
A: 0.424

Q: What about the relative viability (Neratinib + Tozasertib; first compound 0.3162 µM) of the same cell line?
A: 0.224

Q: And the relative viability (Neratinib + Tozasertib; first compound 1 µM)?
A: 0.229

Q: And the relative viability (Neratinib + Dasatinib; first compound 0.01 µM)?
A: 0.578

Q: What about the relative viability (Neratinib + Dasatinib; first compound 0.03162 µM) of the same cell line?
A: 0.538

Q: And the relative viability (Neratinib + Dasatinib; first compound 0.1 µM)?
A: 0.464

Q: What about the relative viability (Neratinib + Dasatinib; first compound 0.3162 µM) of the same cell line?
A: 0.432

Q: And the relative viability (Neratinib + Dasatinib; first compound 1 µM)?
A: 0.26

Q: And the relative viability (Neratinib + Luminespib; first compound 0.01 µM)?
A: 0.663

Q: And the relative viability (Neratinib + Luminespib; first compound 0.03162 µM)?
A: 0.566

Q: What about the relative viability (Neratinib + Luminespib; first compound 0.1 µM) of the same cell line?
A: 0.401

Q: And the relative viability (Neratinib + Luminespib; first compound 0.3162 µM)?
A: 0.355

Q: What about the relative viability (Neratinib + Luminespib; first compound 1 µM) of the same cell line?
A: 0.341

Q: What about the relative viability (Neratinib + Phenformin; first compound 0.01 µM) of the same cell line?
A: 0.598

Q: And the relative viability (Neratinib + Phenformin; first compound 0.03162 µM)?
A: 0.589

Q: What about the relative viability (Neratinib + Phenformin; first compound 0.1 µM) of the same cell line?
A: 0.509

Q: And the relative viability (Neratinib + Phenformin; first compound 0.3162 µM)?
A: 0.337

Q: And the relative viability (Neratinib + Phenformin; first compound 1 µM)?
A: 0.236

Q: What about the relative viability (Neratinib + OSI-027; first compound 0.01 µM) of the same cell line?
A: 0.496

Q: And the relative viability (Neratinib + OSI-027; first compound 0.03162 µM)?
A: 0.376

Q: What about the relative viability (Neratinib + OSI-027; first compound 0.1 µM) of the same cell line?
A: 0.365

Q: What about the relative viability (Neratinib + OSI-027; first compound 0.3162 µM) of the same cell line?
A: 0.213

Q: And the relative viability (Neratinib + OSI-027; first compound 1 µM)?
A: 0.261

Q: What about the relative viability (Neratinib + Foretinib; first compound 0.01 µM) of the same cell line?
A: 0.822

Q: And the relative viability (Neratinib + Foretinib; first compound 0.03162 µM)?
A: 0.856

Q: What about the relative viability (Neratinib + Foretinib; first compound 0.1 µM) of the same cell line?
A: 0.621

Q: And the relative viability (Neratinib + Foretinib; first compound 0.3162 µM)?
A: 0.31

Q: What about the relative viability (Neratinib + Foretinib; first compound 1 µM) of the same cell line?
A: 0.241

Q: What about the relative viability (Neratinib; 0.03162 µM) of the same cell line?
A: 0.903

Q: And the relative viability (Neratinib; 0.1 µM)?
A: 0.755

Q: What about the relative viability (Neratinib; 0.3162 µM) of the same cell line?
A: 0.333

Q: What about the relative viability (Neratinib; 1 µM) of the same cell line?
A: 0.271
